This note sets out measurements from patent publication US10689343B2, “Inhibitors of tryptophan 2,3-dioxygenase” (NETHERLANDS TRANSLATIONAL RESEARCH CENTER B.V., priority 2016, dated 2020).

Each structure is given as a SMILES string. pIC50: −log10 of the molar value. Where “and” joins values, the source holds several entries; their conditions need not be identical. Equal values may be shown once.

One experiment addresses T1, Recombinant TDO (Homo sapiens, UniProt P48775).
T1 construct: Recombinant TDO (Seegers, N., et al.) and all other assay components were diluted in TDO reaction buffer
Briefly: Biochemical assay for TDO (NFK GreenScreen). Particulars: 50 nM TDO, 200 μM L-tryptophan. The method, boiled down: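 Recombinant human TDO (50 nM) preincubated with compound 60 min at room temperature in 100 mM NaH2PO4 pH 7.0, 0.02% Tween-20, with ascorbic acid. Reaction then run 15 min with 200 μM L-tryptophan (final), 0.3% DMSO. NFK product detected by NFK Green fluorescence after 3 h at 37° C; IC50 derived.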

Experiment [1] deals with T2, TDO in SW48 colorectal carcinoma cells (Homo sapiens, UniProt P48775).
T2 construct: Endogenous expression of TDO has been determined in a variety of cancer cell lines; host or cells: SW48 colorectal carcinoma cells
T2 sequence (P48775 whole entry): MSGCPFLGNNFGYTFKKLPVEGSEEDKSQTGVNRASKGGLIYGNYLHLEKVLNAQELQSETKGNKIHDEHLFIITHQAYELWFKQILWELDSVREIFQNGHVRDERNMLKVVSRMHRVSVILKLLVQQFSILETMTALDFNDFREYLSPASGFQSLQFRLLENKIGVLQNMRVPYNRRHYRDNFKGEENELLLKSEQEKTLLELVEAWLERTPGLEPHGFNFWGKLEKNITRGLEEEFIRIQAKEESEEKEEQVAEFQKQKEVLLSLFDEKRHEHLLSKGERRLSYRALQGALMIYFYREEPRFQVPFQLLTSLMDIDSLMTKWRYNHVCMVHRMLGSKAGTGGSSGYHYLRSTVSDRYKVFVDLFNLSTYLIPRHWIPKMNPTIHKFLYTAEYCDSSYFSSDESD
Briefly: Cell-based assay for TDO in SW48 colorectal carcinoma cells (NFK GreenScreen). Conditions: 18 hours with L-tryptophan, read-out: IC50 on TDO in cells.

Another experiment deals with CYP2D6 (Homo sapiens, UniProt P10635). Briefly: P450-Glo CYP2D6 Luc-IP assay.
Chain of CYP2D6 (P10635 whole entry): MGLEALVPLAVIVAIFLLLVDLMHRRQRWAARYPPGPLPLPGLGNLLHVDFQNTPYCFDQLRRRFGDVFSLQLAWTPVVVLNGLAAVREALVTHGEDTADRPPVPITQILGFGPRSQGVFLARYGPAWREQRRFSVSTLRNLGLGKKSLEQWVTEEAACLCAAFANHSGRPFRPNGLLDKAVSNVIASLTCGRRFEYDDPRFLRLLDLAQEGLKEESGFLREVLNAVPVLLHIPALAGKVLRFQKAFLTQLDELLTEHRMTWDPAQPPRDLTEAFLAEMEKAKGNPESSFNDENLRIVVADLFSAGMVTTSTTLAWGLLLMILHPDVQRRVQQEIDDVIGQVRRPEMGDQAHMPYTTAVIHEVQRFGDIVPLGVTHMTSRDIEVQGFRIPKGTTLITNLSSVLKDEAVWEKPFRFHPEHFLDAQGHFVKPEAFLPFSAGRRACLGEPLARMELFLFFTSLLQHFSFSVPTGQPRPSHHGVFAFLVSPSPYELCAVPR
In another experiment the target is CYP3A4 (Homo sapiens, UniProt P08684). The experiment can be described thus: P450-Glo CYP3A4 luciferin isopropylacetal (Luc-IP) assay.
Chain of CYP3A4 (P08684 whole entry): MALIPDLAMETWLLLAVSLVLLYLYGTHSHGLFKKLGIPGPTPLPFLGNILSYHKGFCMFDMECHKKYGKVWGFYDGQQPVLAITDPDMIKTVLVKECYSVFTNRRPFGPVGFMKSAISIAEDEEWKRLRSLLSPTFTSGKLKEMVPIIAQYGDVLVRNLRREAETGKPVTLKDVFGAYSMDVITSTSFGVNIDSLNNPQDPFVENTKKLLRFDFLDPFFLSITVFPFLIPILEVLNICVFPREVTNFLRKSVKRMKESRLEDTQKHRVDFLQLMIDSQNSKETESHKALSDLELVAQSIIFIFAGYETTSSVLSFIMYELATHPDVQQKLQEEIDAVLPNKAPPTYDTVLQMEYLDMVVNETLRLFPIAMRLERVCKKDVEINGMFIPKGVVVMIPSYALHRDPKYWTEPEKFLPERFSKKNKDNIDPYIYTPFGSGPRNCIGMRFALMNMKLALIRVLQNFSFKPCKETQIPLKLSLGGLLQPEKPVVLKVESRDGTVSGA

T1 sequence (P48775 whole entry): as the sequence (P48775 whole entry) above

One may read the pIC50 as the negative decadic logarithm of the IC50, by convention in mol/L. As to `N[C@H]1CC[C@@H](C(=O)Nc2ccc(-c3c[nH]c4cc(F)ccc34)cc2)C1` [Example 106, (1R,3S)-3-amino-N-[4-(6-fluoro-1H-indol-3-yl)phenyl]cyclopentanecarboxamide], the pIC50 was over 6.00 on Recombinant TDO; ≥ 6.30 and 6.30 to 6.70 in experiment [1]; under 5.00 at CYP2D6; 5.00 to 5.30 against CYP3A4.
With `CN1CCN(CC(=O)Nc2ccc(-c3c[nH]c4cc(F)ccc34)cc2)CC1` [Example 109, N-[4-(6-fluoro-1H-indol-3-yl)phenyl]-2-(4-methylpiperazin-1-yl)acetamide], the pIC50 at Recombinant TDO was over 6.00; in experiment [1] it was ≥ 6.30 and 6.30 to 6.70; at CYP2D6, under 5.00; against CYP3A4, under 5.00.
Regarding `C[C@H]1CNCC[C@H]1C(=O)Nc1ccc(-c2c[nH]c3cc(F)ccc23)cc1` [Example 110, (3R,4R)—N-[4-(6-fluoro-1H-indol-3-yl)phenyl]-3-methyl-piperidine-4-carboxamide], the pIC50 at Recombinant TDO was over 6.00; in experiment [1], ≥ 6.30 and 6.30 to 6.70; on CYP2D6, under 5.00; on CYP3A4, 5.00 to 5.30.
Regarding `COc1cc(-c2c[nH]c3cc(F)ccc23)ccc1C(=O)N[C@H](C)CO` [Example 111, 4-(6-Fluoro-1H-indol-3-yl)-N-[(1R)-2-hydroxy-1-methyl-ethyl]-2-methoxy-benzamide], the pIC50 at Recombinant TDO is 5.30 to 6.00; in experiment [1] it was ≥ 6.30 and 6.30 to 6.70; against CYP2D6, under 5.00; against CYP3A4, under 5.00.
Regarding `NC(=O)CNC(=O)c1ccc(-c2c[nH]c3cc(F)ccc23)cc1` [Example 112, N-(2-amino-2-oxo-ethyl)-4-(6-fluoro-1H-indol-3-yl)benzamide], the negative logarithm of the IC50 (pIC50) at Recombinant TDO was over 6.00; in experiment [1], ≥ 6.30 and 6.30 to 6.70; at CYP2D6, under 5.00; against CYP3A4, under 5.00.
Regarding `CC(=O)NCCNC(=O)c1ccc(-c2c[nH]c3cc(F)ccc23)cc1` [Example 113, N-(2-acetamidoethyl)-4-(6-fluoro-1H-indol-3-yl)benzamide], the pIC50 at Recombinant TDO is 5.30 to 6.00; in experiment [1], ≥ 6.30 and 6.30 to 6.70; against CYP2D6, under 5.00; on CYP3A4, under 5.00.
Take `O=C(NCCN1C[C@H](O)[C@@H](O)C1)c1ccc(-c2c[nH]c3cc(F)ccc23)cc1Cl` [Example 115, 2-Chloro-N-[2-[(3S,4S)-3,4-dihydroxypyrrolidin-1-yl]ethyl]-4-(6-fluoro-1H-indol-3-yl)benzamide]: the pIC50 at Recombinant TDO was over 6.00; in experiment [1], ≥ 6.30 and 6.30 to 6.70; on CYP2D6 it was under 5.00; on CYP3A4, under 5.00.
In the case of `O=C(NCCN1C[C@@H](O)[C@H](O)C1)c1ccc(-c2c[nH]c3cc(F)ccc23)cc1Cl` [Example 116, 2-Chloro-N-[2-[(3R,4R)-3,4-dihydroxypyrrolidin-1-yl]ethyl]-4-(6-fluoro-1H-indol-3-yl)benzamide], the pIC50 on Recombinant TDO is over 6.00; in experiment [1] it was ≥ 6.30 and 6.30 to 6.70; against CYP2D6, under 5.00; against CYP3A4 it was under 5.00.
As to `C[C@H](CO)NC(=O)c1ccc(-c2c[nH]c3cc(F)ccc23)c(F)c1` [Example 117, 3-Fluoro-4-(6-fluoro-1H-indol-3-yl)-N-[(1R)-2-hydroxy-1-methyl-ethyl]benzamide], the pIC50 at Recombinant TDO was over 6.00; in experiment [1], ≥ 6.30 and 6.30 to 6.70; on CYP2D6, 5.00 to 5.30; at CYP3A4, 5.00 to 5.30.
As for `O=C(NC1CCCNC1)c1ccc(-c2c[nH]c3cc(F)ccc23)cc1` (centres unmarked) [Example 118, 4-(6-Fluoro-1H-indol-3-yl)-N-(3-piperidyl)benzamide], the pIC50 on Recombinant TDO was over 6.00; in experiment [1], at least 6.70; at CYP2D6, under 5.00; on CYP3A4, under 5.00.
Consider `CC(=O)N1CCCC(NC(=O)c2ccc(-c3c[nH]c4cc(F)ccc34)cc2)C1` (centres unmarked) [Example 119, N-(1-acetyl-3-piperidyl)-4-(6-fluoro-1H-indol-3-yl)benzamide], for which the pIC50 was 5.30 to 6.00 at Recombinant TDO; ≥ 6.30 and 6.30 to 6.70 in experiment [1]; under 5.00 against CYP2D6; 5.00 to 5.30 at CYP3A4.
As to `COC(=O)C(NC(=O)c1ccc(-c2c[nH]c3cc(F)ccc23)cc1)C1CCNCC1` (centres unmarked) [Example 122, Methyl 2-[[4-(6-fluoro-1H-indol-3-yl)benzoyl]amino]-2-(4-piperidyl)acetate], the pIC50 on Recombinant TDO was over 6.00; in experiment [1], ≥ 6.30 and 6.30 to 6.70; at CYP2D6, under 5.00; against CYP3A4 it was 5.00 to 5.30.
For the compound `C[C@@H](CO)NC(=O)c1ccc(-c2c[nH]c3cc(F)ccc23)cc1F` [Example 123, 2-Fluoro-4-(6-fluoro-1H-indol-3-yl)-N-[(1S)-2-hydroxy-1-methyl-ethyl]benzamide], the pIC50 on Recombinant TDO is over 6.00; in experiment [1] it was at least 6.70; at CYP2D6 it was under 5.00; against CYP3A4, 5.00 to 5.30.
As to `CN(C)CCCNC(=O)c1ccc(-c2c[nH]c3cc(F)ccc23)cc1F` [Example 124, N-[3-(dimethylamino)propyl]-2-fluoro-4-(6-fluoro-1H-indol-3-yl)benzamide], the pIC50 was over 6.00 on Recombinant TDO, at least 6.70 in experiment [1], under 5.00 on CYP2D6 and 5.00 to 5.30 on CYP3A4.
The matching figures for `O=C(N[C@H]1CCCNC1)c1ccc(-c2c[nH]c3cc(F)ccc23)cc1F` [Example 125, 2-Fluoro-4-(6-fluoro-1H-indol-3-yl)-N-[(3S)-3-piperidyl]benzamide]: over 6.00, at least 6.70, under 5.00 and 5.00 to 5.30.
As to `Cc1cc(C(=O)NCCCN(C)C)ccc1-c1c[nH]c2cc(F)ccc12` [Example 127, N-[3-(dimethylamino)propyl]-4-(6-fluoro-1H-indol-3-yl)-3-methyl-benzamide], the negative logarithm of the IC50 (pIC50) at Recombinant TDO is over 6.00; in experiment [1], ≥ 6.30 and 6.30 to 6.70; against CYP2D6 it was under 5.00; against CYP3A4 it was under 5.00.
Turning to `C[C@H](CO)NC(=O)c1ccc(-c2c[nH]c3cc(F)ccc23)cc1F` [Example 129, 2-Fluoro-4-(6-fluoro-1H-indol-3-yl)-N-[(1R)-2-hydroxy-1-methyl-ethyl]benzamide], the pIC50 at Recombinant TDO was over 6.00; in experiment [1] it was ≥ 6.30 and 6.30 to 6.70; against CYP2D6, under 5.00; against CYP3A4 it was under 5.00.
On to `O=C(Nc1ccc(-c2c[nH]c3cc(F)ccc23)cc1)[C@@H]1CCCNC1` [Example 131, (3R)—N-[4-(6-fluoro-1H-indol-3-yl)phenyl]piperidine-3-carboxamide], for which the negative logarithm of the IC50 (pIC50) at Recombinant TDO is over 6.00; in experiment [1] it was ≥ 6.30 and 6.30 to 6.70; at CYP2D6 it was under 5.00; on CYP3A4, under 5.00.
Regarding `NS(=O)(=O)N1CCCC(NC(=O)c2ccc(-c3c[nH]c4cc(F)ccc34)cc2)C1` (centres unmarked) [Example 132, 4-(6-Fluoro-1H-indol-3-yl)-N-(1-sulfamoyl-3-piperidyl)benzamide], the pIC50 is 5.30 to 6.00 on Recombinant TDO; ≥ 6.30 and 6.30 to 6.70 in experiment [1]; under 5.00 against CYP2D6; under 5.00 at CYP3A4.
In the case of `O=C(N[C@H]1CN2CCC1CC2)c1ccc(-c2c[nH]c3cc(F)ccc23)cc1` [Example 133, 4-(6-Fluoro-1H-indol-3-yl)-N-[(3R)-quinuclidin-3-yl]benzamide], the pIC50 at Recombinant TDO is over 6.00; in experiment [1] it was at least 6.70; against CYP2D6, under 5.00; at CYP3A4, under 5.00.
